Common to all, as to assay type: cell-based
For one assay, the system named is COV362. The assay can be described thus: Colony formation (CFU) assay, COV362. The note with it: 336 h; COV362, ovary; CFU ~14 days; wells with DMSO or 300 nM Compound 1; read-out: Chemotherapy nM IC50s. As to the method: (§1) In vitro experiments were conducted using the colony formation unit (CFU) assay on various cell lines. The CFU assay involved first establishing what cell plating density enabled the development of clearly interspersed colonies on a six-well plate when left to grow for around 14 days. […] At or around day 14 when clearly interspersed colonies were visible in the DMSO-treated wells, the cells were fixed and stained using 0.1% crystal violet in 10% ethanol for 20 minutes at room temperature. The plates were imaged then the amount of crystal violet stain in each well was quantified by extracting the crystal violet into 10% acetic acid and the absorbance measured at 565 nm.
(§2) For certain cell lines, multiple IC50 values were taken, and those are separated by commas. Synergy scores are in parentheticals.

A further assay relates to ACCMESO1. As to the kind of experiment: Colony formation (CFU) assay, ACCMESO1. The note with it: ACC-MESO-1, 336 h; ACCMESO1, pleura; CFU ~14 days; wells with DMSO or 300 nM Compound 1; read-out: Chemotherapy nM IC50s. As to the method:
as §1, §2

A further assay concerns KALS1. The assay can be described thus: Colony formation (CFU) assay, KALS1. The note with it: Homo sapiens, KALS-1, 336 h; KALS1, nervous system; CFU ~14 days; wells with DMSO or 300 nM Compound 1; read-out: Chemotherapy nM IC50s. As to the method:
as §1, §2

Another assay has as its system MSTO211H. As to the kind of experiment: Colony formation (CFU) assay, MSTO211H. The note with it: pleura, CFU ~14 days, wells with DMSO or 300 nM Compound 1, read-out: Chemotherapy nM IC50s. As to the method:
as §1, §2

A further assay concerns UWB1289. As to the kind of experiment: Colony formation (CFU) assay, UWB1289. The note with it: 336 h; UWB1289, ovary; CFU ~14 days; wells with DMSO or 300 nM Compound 1; read-out: Chemotherapy nM IC50s. The protocol: as §1, §2
The next assay relates to NCIH2452. As to the kind of experiment: Colony formation (CFU) assay, NCIH2452. The note with it: Homo sapiens, NCI-H2452, 336 h; NCIH2452, pleura; CFU ~14 days; wells with DMSO or 300 nM Compound 1; read-out: Chemotherapy nM IC50s. As to the method:
as §1, §2

Another assay relates to MERO14. The assay can be described thus: Colony formation (CFU) assay, MERO14. The note with it: CFU ~14 days, wells with DMSO or 300 nM Compound 1, read-out: Chemotherapy nM IC50s. The protocol: as §1, §2
A further assay deals with OVSAHO. As to the kind of experiment: Colony formation (CFU) assay, OVSAHO. The note with it: Homo sapiens, 336 h, ovary, CFU ~14 days, wells with DMSO or 300 nM Compound 1, read-out: Chemotherapy nM IC50s. The protocol: as §1, §2
Another assay relates to HCC1937. The assay can be described thus: Colony formation (CFU) assay, HCC1937. The note with it: HCC1937, breast, CFU ~14 days, wells with DMSO or 300 nM Compound 1, read-out: Chemotherapy nM IC50s. The protocol: as §1, §2
The subject of the next assay is CAPAN2. As to the kind of experiment: Colony formation (CFU) assay, CAPAN2. The note with it: CAPAN2, pancreas, CFU ~14 days, wells with DMSO or 300 nM Compound 1, read-out: Chemotherapy nM IC50s. The protocol:
as §1, §2

The subject of a further assay is HPAC. The assay can be described thus: Colony formation (CFU) assay, HPAC. The note with it: Homo sapiens, 336 h, pancreas, CFU ~14 days, wells with DMSO or 300 nM Compound 1, read-out: Chemotherapy nM IC50s. As to the method:
as §1, §2

In the next assay the test system is MDAMB231. The assay can be described thus: Colony formation (CFU) assay, MDAMB231. The note with it: MDAMB231, breast, CFU ~14 days, wells with DMSO or 300 nM Compound 1, read-out: Chemotherapy nM IC50s. The protocol:
as §1, §2

A further assay relates to NCIH1915. The assay can be described thus: Colony formation (CFU) assay, NCIH1915. The note with it: NCIH1915, lung, CFU ~14 days, wells with DMSO or 300 nM Compound 1, read-out: Chemotherapy nM IC50s. As to the method: as §1, §2
The subject of a further assay is A549. As to the kind of experiment: Colony formation (CFU) assay, A549. The note with it: Homo sapiens, 336 h; A549, lung; CFU ~14 days; wells with DMSO or 300 nM Compound 1; read-out: Chemotherapy nM IC50s. As to the method: as §1, §2
The next assay concerns NCIH1650. As to the kind of experiment: Colony formation (CFU) assay, NCIH1650. The note with it: NCIH1650, lung, CFU ~14 days, wells with DMSO or 300 nM Compound 1, read-out: Chemotherapy nM IC50s. The protocol:
as §1, §2

In another assay the test system is HCC1806. The assay can be described thus: Colony formation (CFU) assay, HCC1806. The note with it: HCC1806, breast, CFU ~14 days, wells with DMSO or 300 nM Compound 1, read-out: Chemotherapy nM IC50s (converted). As to the method: as §1, §2
A further assay has as its system 647V. The assay can be described thus: Colony formation (CFU) assay, 647V. The note with it: Homo sapiens, 336 h, bladder, CFU ~14 days, wells with DMSO or 300 nM Compound 1, read-out: Chemotherapy nM IC50s. As to the method:
as §1, §2

The test system of the next assay is SUM149PT. The assay can be described thus: Colony formation (CFU) assay, SUM149PT. The note with it: breast. The protocol:
as §1, §2

The next assay concerns U251MG. The assay can be described thus: Colony formation (CFU) assay, U251MG. The note with it: nervous system, CFU ~14 days, wells with DMSO or 300 nM Compound 1, read-out: Chemotherapy nM IC50s. The protocol:
as §1, §2

The test system of the next assay is BECKER. The assay can be described thus: Colony formation (CFU) assay, BECKER. The note with it: CFU ~14 days, wells with DMSO or 300 nM Compound 1, read-out: Chemotherapy nM IC50s. As to the method:
as §1, §2

Where two headings read alike, the source gives them in different places. Bounds are passed on as bounds.

Take `COc1cccc2c1C(=O)c1c(O)c3c(c(O)c1C2=O)C[C@@](O)(C(=O)CO)C[C@@H]3O[C@H]1C[C@H](N)[C@H](O)[C@H](C)O1` [Dox., doxorubicin]: the IC50 in the assay with COV362 was 108 nM; in the assay on ACCMESO1, 19 nM; with KALS1, 52 nM; in the assay on MSTO211H (Homo sapiens, MSTO-211H, 336 h) it was 16 nM; in the assay on MSTO211H, 8 nM; in the assay on UWB1289, 76 nM. Further, the IC50 with NCIH2452 is 21 nM; in the assay on MERO14 (336 h) it was 17 nM; in the assay with MERO14, 14 nM; in the assay with OVSAHO it was 147 nM; in the assay on HCC1937, 4 nM; in the assay on HCC1937 (Homo sapiens, HCC1937, 336 h) it was 8 nM.
Regarding `CC(=O)O[C@H]1C(=O)[C@@]2(C)[C@H]([C@H](OC(=O)c3ccccc3)[C@]3(O)C[C@H](OC(=O)[C@H](O)[C@@H](NC(=O)c4ccccc4)c4ccccc4)C(C)=C1C3(C)C)[C@]1(OC(C)=O)CO[C@@H]1C[C@@H]2O` [Pacli., paclitaxel], the IC50 is 13 nM with COV362; < 1 nM with CAPAN2; 2 nM in the assay on CAPAN2 (Homo sapiens, Capan-2, 336 h); 3 nM with HPAC; 43 nM with UWB1289; 1 nM in the assay on MDAMB231 (Homo sapiens, MDA-MB-231, 336 h). The IC50 in the assay on MDAMB231 was < 1 nM; with NCIH1915 (NCI-H1915, 336 h), < 1 nM; in the assay on OVSAHO it was 78 nM; in the assay on A549 it was 2 nM; in the assay on NCIH1650 (Homo sapiens, NCI-H1650, 336 h), 1 nM; in the assay on NCIH1650, < 1 nM. In addition, the IC50 in the assay on HCC1806 was < 1 nM; with HCC1806 (Homo sapiens, HCC1806, 336 h), 1 nM.
Consider `Nc1ccn([C@@H]2O[C@H](CO)[C@@H](O)C2(F)F)c(=O)n1` [Gem., gemcitabine], for which the IC50 in the assay on 647V is 2 nM; with SUM149PT (Homo sapiens, 336 h, CFU ~14 days, wells with DMSO or 300 nM Compound 1, read-out: Chemotherapy nM IC50s), 1 nM; in the assay on HCC1806 (Homo sapiens, 336 h) it was < 1 nM. Also, in the assay on SUM149PT (chemotherapy agent in combination with 300 nM Compound 1), the synergy score entry is listed as “(−1)”.
Turning to `COc1cc([C@@H]2c3cc4c(cc3[C@@H](O[C@@H]3O[C@@H]5CO[C@@H](C)O[C@H]5[C@H](O)[C@H]3O)[C@H]3COC(=O)[C@H]23)OCO4)cc(OC)c1O` [Etop., etoposide], the IC50 in the assay with NCIH1915 was 500 nM; in the assay with U251MG, 583 nM; with NCIH1650, 270 nM; with BECKER, 837 nM.

The record behind these values is US20250213574A1, “THERAPEUTIC COMBINATIONS COMPRISING UBIQUITIN- SPECIFIC-PROCESSING PROTEASE 1 (USP1) INHIBITORS AND CHEMOTHERAPY AGENTS” (KSQ Therapeutics, Inc., priority 2022, published 2025).
